How the values were obtained:
F508delCFTR [1] = target: T1, F508delCFTR (Homo sapiens, UniProt P13569, DEL508-508); experiment: Cell Surface Expression-Horse Radish Peroxidase (CSE-HRP) assay; assay type: cell-based; parameters: expressed in transfected cells; host or cells: CFBE41o- human lung derived epithelial cell line, doxycycline-inducible; conditions: CFBE4lo-F508delCFTR-HRP cells; for EC50: 18-24 hours at 33° C., 8-point curve, highest concentration 20 μM, luminescence readout
Summary of the method: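 Following 18-24 h compound exposure at 33° C. Expression was doxycycline-induced beforehand. % activity versus DMSO and a 3 μM corrector control gave maximum activity and EC50 from a variable-Hill sigmoidal fit.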

F508delCFTR [2] = target: T1, F508delCFTR; experiment: Transepithelial Clamp Circuit (TECC-24) conductance assay on primary human bronchial epithelial cells (hBE-TECC); assay type: cell-based; parameters: cells isolated from CF patients with the homozygous mutation; endogenous in cells; host or cells: primary human bronchial epithelial (hBE) cells from F508del/F508del CF patients; conditions: for EC50: primary hBE cells from F508del/F508delCFTR patients, corrector 18-24 hours at 37° C., equivalent short circuit current (Ieq), with control potentiator 1 μM; for Emax: relative to positive control (3 μM Example 1 coupled with control potentiator = 100%), primary hBE F508del/F508del cells, read-out: Maximum % activity (%)
Source text: Transepithelial Clamp Circuit on Human Bronchial Epithelial Cells Conductance Assay:
A cell based assay using the primary human bronchial epithelial cells (hBE) was used as a secondary assay to test novel F508delCFTR correctors for their activity on primary hBE cells with F508del/F508del CFTR mutation. The assay used a TECC-24 (Transepithelial Clamp Circuit for 24 wells) instrument that measures the functionality of the mutated channel by measuring the equivalent short circuit current (Ieq) generated by the polarized epithelial cells. The instrument works by measuring the transepithelial potential difference (Vt) and transepithelial resistance (Rt) in an open circuit format, and the Ieq is calculated by using Ohms law (Ieq=Vt/Rt). The assay was run in a 24-well format and all 24-wells were measured at the same time point giving a higher throughput for this assay.
Primary human bronchial epithelial (hBE) cells from F508del/F508delCFTR patients were expanded from 1×10^6 to 250×10^6 cells (Neuberger T, Burton B, Clark H and VanGoor F; Cystic Fibrosis, Methods in Mole Biol 741; eds. Amaral M D and Kunzelmann K, 2011). For this purpose, cells isolated from CF patients with the homozygous mutation were seeded onto 24 well Corning (Cat #3378) filter plates that were coated with 3T3 conditioned media and grown at an air-liquid interface for 35 days using an Ultroser® G supplemented differentiation media. Apical surface mucus was removed 72 hours before the experiment using 3 mM dithiothreitol (DTT) in phosphate buffered saline (PBS). The apical surface was washed again 24 hours before the experiment using PBS. The cells were incubated with the desired dose response of the corrector compounds 18-24 hours at 37° C., 5% CO2. The corrector compounds are only added on the basolateral side of the epithelial cells.
On the day of measuring the corrector activity on the TECC, the cells were switched into a bicarbonate and serum free F-12 Coon's medium and allowed to equilibrate for 90 minutes in a CO2 free incubator. At the time of measurement, the apical and basolateral sides of the filter were bathed with the F-12 Coon's modification media (with 20 mM 4-(2-hydroxyethyl)-1-piperazineethanesulfonic acid (HEPES), pH 7.4 (using 1 M tris(hydroxymethyl)aminormethane (Tris)), and the measurements were made at 36.5° C. Transepithelial voltage (Vt) and transepithelial resistance (Rt) were measured using a 24 channel transepithelial current clamp (TECC-24). Current responses to the sequential addition of benzamil (apical 6 μM addition; for inhibiting epithelial ENaC channel), forskolin (apical and basolateral 10 μM addition; for activating the CFTR channel), control potentiator (N-(3-carbamoyl-5,5,7,7-tetramethyl-4,7-dihydro-5H-thieno[2,3-c]pyran-2-yl)-1H-pyrazole-5-carboxamide; apical and basolateral 1 μM addition; for potentiating the CFTR channel) and bumetanide (basolateral 20 μM addition; for inhibiting the Na:2Cl:K co-transporter, an indirect measure of inhibiting the Cl-secretion driven by CFTR channel) were measured.
All plates contained negative controls (dimethyl sulfoxide, DMSO) which coupled with the control potentiator (N-(3-carbamoyl-5,5,7,7-tetramethyl-4,7-dihydro-5H-thieno[2,3-c]pyran-2-yl)-1H-pyrazole-5-carboxamide) sets the null response and positive controls (3 μM of 3-[(2R,4R)-4-({[1-(2,2-difluoro-1,3-benzodioxol-5-yl)cyclopropyl]carbonyl}amino)-7-methoxy-3,4-dihydro-2H-chromen-2-yl]benzoic acid) coupled with the control potentiator sets the 100% response to measure the correction of the mutated CFTR channel. The maximum percent activity is reported relative to the positive control value.
The % activity measured at each of the 6 test concentrations of the test compound was normalized to the on-plate positive control using the following formula: % activity=[(test compound response−DMSO response)/(positive control response−DMSO response)]*100 […]

[3] = maximum % activity at any tested concentration, normalized to on-plate positive control (3 μM Example 1)

T1 sequence (P13569 with tags, fused parts or gaps DEL508-508): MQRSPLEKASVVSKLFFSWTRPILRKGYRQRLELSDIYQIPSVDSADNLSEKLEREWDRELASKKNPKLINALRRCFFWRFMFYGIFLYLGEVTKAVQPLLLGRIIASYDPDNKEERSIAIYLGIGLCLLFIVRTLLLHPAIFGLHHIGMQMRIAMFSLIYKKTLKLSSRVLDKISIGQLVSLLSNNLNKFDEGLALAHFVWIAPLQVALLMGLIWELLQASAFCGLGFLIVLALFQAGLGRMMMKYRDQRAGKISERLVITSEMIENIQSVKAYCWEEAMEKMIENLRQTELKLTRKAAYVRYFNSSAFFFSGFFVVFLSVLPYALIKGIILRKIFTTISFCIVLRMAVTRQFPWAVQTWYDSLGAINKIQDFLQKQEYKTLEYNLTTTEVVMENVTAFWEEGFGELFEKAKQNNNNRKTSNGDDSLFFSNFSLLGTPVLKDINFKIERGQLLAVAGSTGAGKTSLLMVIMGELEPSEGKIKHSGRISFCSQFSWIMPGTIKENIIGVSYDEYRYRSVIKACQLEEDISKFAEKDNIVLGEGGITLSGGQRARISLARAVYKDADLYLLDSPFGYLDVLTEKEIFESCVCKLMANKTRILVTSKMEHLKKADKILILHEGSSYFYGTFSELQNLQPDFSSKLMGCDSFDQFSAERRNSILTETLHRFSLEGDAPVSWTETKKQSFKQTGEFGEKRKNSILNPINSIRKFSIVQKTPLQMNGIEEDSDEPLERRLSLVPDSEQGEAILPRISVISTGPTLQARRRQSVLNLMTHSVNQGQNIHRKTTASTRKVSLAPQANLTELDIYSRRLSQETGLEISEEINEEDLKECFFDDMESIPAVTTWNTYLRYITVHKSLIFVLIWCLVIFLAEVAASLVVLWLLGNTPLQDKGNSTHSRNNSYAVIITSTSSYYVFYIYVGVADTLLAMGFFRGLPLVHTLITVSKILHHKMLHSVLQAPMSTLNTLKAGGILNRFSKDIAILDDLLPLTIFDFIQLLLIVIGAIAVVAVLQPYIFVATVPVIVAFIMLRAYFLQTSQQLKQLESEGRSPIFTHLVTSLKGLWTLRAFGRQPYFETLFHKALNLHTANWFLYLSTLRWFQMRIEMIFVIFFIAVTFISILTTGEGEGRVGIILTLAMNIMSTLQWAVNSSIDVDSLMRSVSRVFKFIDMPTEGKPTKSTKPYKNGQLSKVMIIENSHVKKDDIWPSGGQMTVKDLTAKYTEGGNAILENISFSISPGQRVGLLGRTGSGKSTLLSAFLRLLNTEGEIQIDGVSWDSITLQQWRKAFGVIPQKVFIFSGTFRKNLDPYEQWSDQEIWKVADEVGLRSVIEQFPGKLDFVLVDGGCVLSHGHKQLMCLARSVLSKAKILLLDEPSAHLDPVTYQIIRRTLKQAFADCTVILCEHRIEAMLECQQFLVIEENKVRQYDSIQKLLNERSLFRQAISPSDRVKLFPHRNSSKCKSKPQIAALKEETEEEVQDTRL

| Compound | EC50 (F508delCFTR [1]) | Emax (F508delCFTR [1]; [3]) | EC50 (F508delCFTR [2]) | Emax (F508delCFTR [2]) | Maximum % activity (%) (F508delCFTR [1]; [3]) |
| --- | --- | --- | --- | --- | --- |
| O=C(O)c1cccc([C@H]2C[C@@H](NC(=O)C3(c4ccc5c(c4)OC(F)(F)O5)CC3)c3cccc(F)c3O2)c1 [Example 119, 3-[(2R,4R)-4-({[1-(2,2-difluoro-1,3-benzodioxol-5-yl)cyclopropyl]carbonyl}amino)-8-fluoro-3,4-dihydro-2H-chromen-2-yl]benzoic acid] | 880 nM | 71% | 450 nM | 80% | – |
| O=C(O)c1ccc([C@H]2C[C@@H](NC(=O)C3(c4ccc5c(c4)OC(F)(F)O5)CC3)c3ccccc3O2)cc1 [Example 121, 4-[(2R,4R)-4-({[1-(2,2-difluoro-1,3-benzodioxol-5-yl)cyclopropyl]carbonyl}amino)-3,4-dihydro-2H-chromen-2-yl]benzoic acid] | 130 nM | 102% | 38 nM | 87% | – |
| COc1ccc2c(c1)O[C@@H](c1ccc(C(=O)O)c(F)c1)C[C@H]2NC(=O)C1(c2ccc3c(c2)OC(F)(F)O3)CC1 [Example 139, 4-[(2R,4R)-4-({[1-(2,2-difluoro-1,3-benzodioxol-5-yl)cyclopropyl]carbonyl}amino)-7-methoxy-3,4-dihydro-2H-chromen-2-yl]-2-fluorobenzoic acid] | 100 nM | 115% | 31.3 nM | 100% | – |
| COc1ccc2c(c1)O[C@@H](C(=O)N1CCN(CCO)CC1)C[C@H]2NC(=O)C1(c2ccc3c(c2)OC(F)(F)O3)CC1 (racemic) [Example 169, rac-1-(2,2-difluoro-1,3-benzodioxol-5-yl)-N-[(2R,4R)-2-{[4-(2-hydroxyethyl)piperazin-1-yl]carbonyl}-7-methoxy-3,4-dihydro-2H-chromen-4-yl]cyclopropanecarboxamide] | 4900 nM | 38% | – | – | – |
| COC(=O)[C@H]1C[C@H](NC(=O)C2(c3ccc4c(c3)OC(F)(F)O4)CC2)c2ccc(OC)cc2O1 (racemic) [Example 131, methyl rac-(2R,4S)-4-({[1-(2,2-difluoro-1,3-benzodioxol-5-yl)cyclopropyl]carbonyl}amino)-7-methoxy-3,4-dihydro-2H-chromene-2-carboxylate] | 3600 nM | 70% | – | – | – |
| Cc1ccc2c(c1)O[C@@H](c1cccc(C(=O)N3CC(C)(CO)C3)c1)C[C@H]2NC(=O)C1(c2ccc3c(c2)OC(F)(F)O3)CC1 [Example 55, 1-(2,2-difluoro-1,3-benzodioxol-5-yl)-N-[(2R,4R)-2-(3-{[3-(hydroxymethyl)-3-methylazetidin-1-yl]carbonyl}phenyl)-7-methyl-3,4-dihydro-2H-chromen-4-yl]cyclopropanecarboxamide] | 2110 nM | 101% | – | – | – |
| COC(=O)c1cccc([C@H]2C[C@@H](NC(=O)C3(c4ccc5c(c4)OC(F)(F)O5)CC3)c3ccc(Cl)nc3O2)c1 (racemic) [Example 112, methyl rac-3-[(2R,4R)-7-chloro-4-({[1-(2,2-difluoro-1,3-benzodioxol-5-yl)cyclopropyl]carbonyl}amino)-3,4-dihydro-2H-pyrano[2,3-b]pyridin-2-yl]benzoate] | ≥ 20000 nM | 5% | – | – | – |
| O=C(O)c1cccc([C@H]2C[C@H](NC(=O)C3(c4ccc5c(c4)OC(F)(F)O5)CC3)c3cccnc3O2)c1 (racemic) [Example 32, rac-3-[(2R,4S)-4-({[1-(2,2-difluoro-1,3-benzodioxol-5-yl)cyclopropyl]carbonyl}amino)-3,4-dihydro-2H-pyrano[2,3-b]pyridin-2-yl]benzoic acid] | ≥ 20000 nM | 16% | – | – | – |
| COC(=O)c1cccc([C@H]2C[C@@H](NC(=O)C3(c4ccc5c(c4)OC(F)(F)O5)CC3)c3cc(C)ccc3O2)c1 [Example 11, methyl 3-[(2R,4R)-4-({[1-(2,2-difluoro-1,3-benzodioxol-5-yl)cyclopropyl]carbonyl}amino)-6-methyl-3,4-dihydro-2H-chromen-2-yl]benzoate] | 910 nM | 102% | – | – | – |
| O=C(NC1CC(c2ccc(C(F)(F)F)cc2)Oc2ccccc21)C1(c2ccc3c(c2)OC(F)(F)O3)CC1 (centres unmarked) [Example 64, 1-(2,2-difluoro-1,3-benzodioxol-5-yl)-N-{2-[4-(trifluoromethyl)phenyl]-3,4-dihydro-2H-chromen-4-yl}cyclopropanecarboxamide] | 1610 nM | 78% | – | – | – |
| COC(=O)c1cccc([C@H]2C[C@@H](NC(=O)C3(c4ccc5c(c4)OC(F)(F)O5)CC3)c3ccc(OC)nc3O2)c1 (racemic) [Example 30, methyl rac-3-[(2R,4R)-4-({[1-(2,2-difluoro-1,3-benzodioxol-5-yl)cyclopropyl]carbonyl}amino)-7-methoxy-3,4-dihydro-2H-pyrano[2,3-b]pyridin-2-yl]benzoate] | 1880 nM | 78% | – | – | – |
| COc1ccc2c(c1)O[C@@H](C(=O)NC(CO)c1ccccc1OC)C[C@@H]2NC(=O)C1(c2ccc3c(c2)OC(F)(F)O3)CC1 (mixture of isomers) [Example 197, rac-(2R,4S)-4-({[1-(2,2-difluoro-1,3-benzodioxol-5-yl)cyclopropyl]carbonyl}amino)-N-[2-hydroxy-1-(2-methoxyphenyl)ethyl]-7-methoxy-3,4-dihydro-2H-chromene-2-carboxamide] | 2100 nM | 73% | – | – | – |
| COc1ccc2c(c1)O[C@@H](C1CC1)C[C@@H]2NC(=O)C1(c2ccc3c(c2)OC(F)(F)O3)CC1 (racemic) [Example 41, rac-N-[(2R,4S)-2-cyclopropyl-7-methoxy-3,4-dihydro-2H-chromen-4-yl]-1-(2,2-difluoro-3-benzodioxol-5-yl)cyclopropanecarboxamide] | 2580 nM | 73% | – | – | – |
| COC(=O)c1cccc([C@H]2C[C@@H](NC(=O)C3(c4ccc5c(c4)OC(F)(F)O5)CC3)c3ccc(OCc4ccccc4)cc3O2)c1 [Example 95, methyl 3-[(2R,4R)-7-(benzyloxy)-4-({[1-(2,2-difluoro-1,3-benzodioxol-5-yl)cyclopropyl]carbonyl}amino)-3,4-dihydro-2H-chromen-2-yl]benzoate] | 920 nM | 98% | – | – | – |
| N-[2-(3,4-dichlorophenyl)-3,4-dihydro-2H-chromen-4-yl]-1-(2,2-difluoro-1,3-benzodioxol-5-yl)cyclopropanecarboxamide [Example 66] | 6100 nM | – | – | – | 89% |
| COc1ccc2c(c1)O[C@@H](C(=O)Nc1ccccc1O)C[C@@H]2NC(=O)C1(c2ccc3c(c2)OC(F)(F)O3)CC1 (racemic) [Example 182, rac-(2R,4S)-4-({[1-(2,2-difluoro-1,3-benzodioxol-5-yl)cyclopropyl]carbonyl}amino)-N-(2-hydroxyphenyl)-7-methoxy-3,4-dihydro-2H-chromene-2-carboxamide] | 800 nM | 46% | – | – | – |

Source: patent publication US9642831B2, “Substituted chromanes and method of use” (AbbVie S.á.r.l., priority 2014, dated 2017)
